Values after ≈ are worked out from the molar mass of the structure shown.
Experiments:
[1] = Cytotoxicity against human KB16 cells; assay type: functional, cell-based
[2] = Cytotoxicity against human DLD cells; assay type: functional, cell-based

`C=C1CC[C@H](OC(=O)C(C)C)[C@@]2(C)[C@@H](OC(C)=O)CC[C@@]3(CO3)[C@@H]2[C@H](OC(C)=O)[C@]2(O)[C@@H](C)C(=O)O[C@H]2[C@H]1Cl` [JUNCENOLIDE A] showed an IC50 [1] of 5.9 µg/mL (≈ 10.3 µM) and an IC50 [2] of 3.4 µg/mL (≈ 5.95 µM).
